Test results as given in the NIST ThermoML archive (doi:10.1021/je900093h).

Test: molar heat capacity at saturation pressure
Details: Crystal, Vacuum adiabatic calorimetry

CCCCCCCCCC(=O)OCC [ethyl decanoate]
Details | molar heat capacity [J/K/mol]
5.07 K | 0.5226
5.31 K | 0.6118
5.56 K | 0.7121
5.81 K | 0.825
6.07 K | 0.9558
6.36 K | 1.118
6.69 K | 1.318
7.02 K | 1.545
7.35 K | 1.796
7.7 K | 2.073
8.04 K | 2.376
8.4 K | 2.709
8.76 K | 3.071
9.12 K | 3.453
9.48 K | 3.859
9.85 K | 4.299
10.32 K | 4.888
10.9 K | 5.635
11.48 K | 6.424
12.07 K | 7.27
12.66 K | 8.157
13.26 K | 9.088
13.87 K | 10.03
14.47 K | 11.01
15.09 K | 12.05
15.81 K | 13.35
16.64 K | 14.88
17.48 K | 16.38
18.32 K | 17.92
19.16 K | 19.47
20.01 K | 21.05
21.18 K | 23.32
22.7 K | 26.32
24.23 K | 29.4
25.75 K | 32.51
27.29 K | 35.64
28.39 K | 37.87
29.64 K | 40.42
31.35 K | 43.96
33.22 K | 47.77
35.1 K | 51.55
36.98 K | 55.32
38.87 K | 59.03
40.75 K | 62.74
42.73 K | 66.71
44.82 K | 70.83
46.9 K | 74.94
49 K | 78.99
51.09 K | 82.94
53.19 K | 86.89
55.3 K | 90.74
57.4 K | 94.51
59.52 K | 98.2
61.64 K | 101.8
63.76 K | 105.3
65.89 K | 108.8
68.01 K | 112.1
70.14 K | 115.4
72.38 K | 118.9
74.72 K | 122.4
77.07 K | 125.9
79.44 K | 129.4
80.12 K | 130.3
81.8 K | 132.9
81.98 K | 133
83.85 K | 135.7
84.15 K | 136.2
85.73 K | 138.3
87.62 K | 141
89.51 K | 143.6
91.41 K | 146.2
93.31 K | 148.8
95.22 K | 151.3
97.14 K | 153.8
99.06 K | 156.2
100.98 K | 158.7
102.91 K | 161
104.84 K | 163.3
106.77 K | 165.7
108.71 K | 167.9
110.66 K | 170
112.6 K | 172.2
114.55 K | 174.3
116.5 K | 176.4
118.46 K | 178.5
120.41 K | 180.4
122.37 K | 182.4
124.33 K | 184.3
126.29 K | 186.2
128.26 K | 188
130.23 K | 189.8
130.37 K | 189.7
132.19 K | 191.6
132.31 K | 191.5
134.17 K | 193.3
134.25 K | 193.3
136.14 K | 195.1
136.19 K | 195
138.12 K | 196.8
